# Values quoted from earlier work, collected in patent US7083803B2, “Ocular solutions” (Advanced Ocular Systems Limited, priority 2003, dated 2006).
# Experiments:
# [1] = administered systemically
compound,measurement,setting,value
"C=CC[C@@H]1/C=C(\C)C[C@H](C)C[C@H](OC)[C@H]2O[C@@](O)(C(=O)C(=O)N3CCCC[C@H]3C(=O)O[C@H](/C(C)=C/[C@@H]3CC[C@@H](O)[C@H](OC)C3)[C@H](C)[C@@H](O)CC1=O)[C@H](C)C[C@@H]2OC [Tacrolimus, tacrolimus]",solubility in chloroform,chloroform,very soluble
same,solubility in ethanol,ethanol,freely soluble
same,solubility in methanol,methanol,very soluble
same,solubility in water,water,practically insoluble
same,renal and hepatic toxicity,[1],significant renal and hepatic toxicity
same,local tolerability,atopic dermatitis; topical administration,well tolerated locally
same,"adverse effects, treated versus control groups",atopic dermatitis; topical administration for dermatoses at concentrations up to 0.3%,no significant difference
same,clinical improvement in atopic dermatitis,"atopic dermatitis; topical administration, doses 0.03%–0.3%, after 2–3 weeks treatment",significant clinical improvement
